Experiment [1] deals with T1, interaction between GMPPNP-bound recombinant K-Ras4B G12C mutant protein and cRAF RAS-binding domain (cRAF-RBD) (Homo sapiens, UniProt P01116, G12C).
T1 construct: His-tag (N)
Nature of the experiment: Inhibitory activity on interaction between KRAS G12C and cRAF (Alpha technology). As to conditions: GMPPNP-bound KRAS G12C incubated with compound 25° C. 1 hour; Table 2-1; read-out: IC50. An outline of the steps:
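His-tagged K-Ras4B G12C (aa 1-169), GMPPNP-loaded, preincubated with compound 1 h at 25° C in pH 7.5 Tris buffer with MgCl2, TCEP, Tween 20. cRAF-RBD (aa 50-132) and Alpha reagents then added for 1.5 h; Alpha signal normalised to DMSO (0%) and GDP-bound KRAS (100%); IC50 from dose titration.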

The next experiment deals with MIA PaCa-2 cells. Nature of the experiment: Growth inhibition activity on KRAS-G12C mutant cell line (CellTiter-Glo 3D). Conditions: Homo sapiens, MIA PaCa-2, 72 h, MIA PaCa-2, 3-day culture with compound; Table 3-1. It is filed as cell-based, human. Put shortly: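 MIA PaCa-2 cells in RPMI1640 with 10% FBS, U-bottom wells, cultured 1 day before compound (0.2% DMSO final), then 3 days at 37 °C, 5% CO2. Viability by CellTiter-Glo 3D luminescence; growth inhibition versus untreated wells gives IC50 (nM).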

T1 sequence (P01116 with tags, fused parts or gaps isoform P01116-2 G12C): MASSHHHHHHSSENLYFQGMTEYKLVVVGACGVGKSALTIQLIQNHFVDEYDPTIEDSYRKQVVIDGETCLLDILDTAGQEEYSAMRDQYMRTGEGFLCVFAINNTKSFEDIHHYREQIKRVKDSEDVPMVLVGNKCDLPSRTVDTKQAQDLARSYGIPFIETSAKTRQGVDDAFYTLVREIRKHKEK

As to `COc1cc2c(nc(C)n2C)c2c1-c1cccn3c(C(=O)c4cc(F)c(NC(=O)/C=C/CNC5(C)CC5)c(F)c4)cc(c13)CCN2C` (single isomer, unassigned) [Example 140, (E)-N-(2,6-difluoro-4-(7-methoxy-9,10,12-trimethyl-9,12,13,14-tetrahydroimidazo[4″,5″:5′,6′]benzo[1′,2′:2,3]azocino[4,5,6-hi]indolizine-2-carbonyl)phenyl)-4-((1-methylcyclopropyl)amino)but-2-enamide], the figures for the IC50 (in experiment [1]; in the experiment with MIA PaCa-2 cells) were 4.13 nM and 7.59 nM, respectively.
The like results for `COc1cc2c(nc(C)n2C)c2c1-c1cccn3c(C(=O)c4cc(F)c(NC(=O)/C=C/CNC5(C)COC5)c(F)c4)cc(c13)CCN2C` (single isomer, unassigned) [Example 141, (E)-N-(2,6-difluoro-4-(7-methoxy-9,10,12-trimethyl-9,12,13,14-tetrahydroimidazo[4″,5″: 5′,6′]benzo[1′,2′:2,3]-azocino[4,5,6-hi]indol-izine-2-carbonyl)phenyl)-4-((3-methyloxetan-3-yl)-amino)but-2-enamide] were, in that order, 9.71 nM and 34.3 nM.
As for `Cc1cc2c(C)n(C)nc2c2c1-c1cccn3c(C(=O)c4cc(F)c(NC(=O)/C=C/CNC5(C)COC5)c(F)c4)cc(c13)CCN2C` (single isomer, unassigned) [Example 145, (E)-N-(2,6-difluoro-4-(7,9,10,12-tetramethyl-10,12,13,14-tetrahydro-indolizino[8′,1′:4,5,6]-azocino[3,2-g]indazole-2-carbonyl)phenyl)4-((3-methyloxetan-3-yl)-amino)-but-2-enamide], the 50% inhibitory concentration (IC50) in experiment [1] was determined as 72.3 nM; with MIA PaCa-2 cells it was 162 nM.
The like results for `CN1CCc2cc(C(=O)c3cc(F)c(NC(=O)/C=C/CNC4(C)COC4)c(F)c3)n3cccc(c23)-c2c(C(F)(F)F)cc3c(ncn3C3CC3)c21` (single isomer, unassigned) [Example 153, (E)-N-(4-(9-cyclopropyl-12-methyl-7-(trifluoro-methyl)-9,12,13,14-tetra-hydroimidazo[4″,5″:5′,6′]-benzo[1′,2′:2,3]azocino-[4,5,6-hi]indolizine-2-carbonyl)-2,6-difluoro-phenyl)-4-((3-methyloxe-tan-3-yl)amino)but-2-enamide] were, in that order, 31.5 nM and 118 nM.
In the case of `Cc1c2cc(C(F)(F)F)c3c(c2nn1C)N(C)CCc1cc(C(=O)c2cc(F)c(NC(=O)/C=C/CN[C@H]4CCOC4)c(F)c2)n2cccc-3c12` (single isomer, unassigned) [Example 154], the IC50 in experiment [1] is 10.2 nM; with MIA PaCa-2 cells, 7.93 nM.
For `Cc1c2cc(C(F)(F)F)c3c(c2nn1C)N(C)CCc1cc(C(=O)c2cc(F)c(NC(=O)/C=C/CNC4(C)CC4)c(F)c2)n2cccc-3c12` (single isomer, unassigned) [Example 155, (E)-N-(2,6-difluoro-4-(9,10,12-trimethyl-7-(trifluoromethyl)-10,12,13,14-tetrahydro-indolizino[8′,1′:4,5,6]-azocino[3,2-g]indazole-2-carbonyl)phenyl)-4-((1-methylcyclopropyl)-amino)but-2-enamide], the half-maximal inhibitory concentration (IC50) in experiment [1] was found to be 8.95 nM; with MIA PaCa-2 cells, 13.5 nM.
The corresponding values for `COc1cc2c(ncn2C)c2c1-c1cccn3c(C(=O)c4cc(F)c(NC(=O)/C=C/CN[C@H]5CCOC5)c(F)c4)cc(c13)CCN2C` (single isomer, unassigned) [Example 159] are 7.22 nM and 8.16 nM.
The corresponding values for `COc1cc2c(ncn2C)c2c1-c1cccn3c(C(=O)c4cc(F)c(NC(=O)/C=C/CNC5(C)CC5)c(F)c4)cc(c13)CCN2C` (single isomer, unassigned) [Example 160, (E)-N-(2,6-difluoro-4-(7-methoxy-9,12-dimethyl-9,12,13,14-tetrahydro-imidazo[4″,5″:5′,6′]benzo-[1′,2′:2,3]azocino[4,5,6-hi]indolizine-2-carbon-yl)phenyl)-4-((1-methyl-cyclopropyl)amino)but-2-enamide] are 5.71 nM and 9.25 nM.
The like results for `CN1CCc2nc(C(=O)c3cc(F)c(NC(=O)/C=C/CN[C@H]4CCOC4)c(F)c3)n3cccc(c23)-c2c(C(F)(F)F)cc3c(ncn3C)c21` (single isomer, unassigned) [Example 167] were, in that order, 27.9 nM and 16.4 nM.
In the case of `COc1cc2c(nc(C(F)(F)F)n2C)c2c1-c1cccn3c(C(=O)c4cc(F)c(NC(=O)/C=C/CN[C@H]5CCOC5)c(F)c4)cc(c13)CCN2C` (single isomer, unassigned) [Example 168], the concentration for half-maximal inhibition (IC50) in experiment [1] turned out to be 43.8 nM; in the experiment with MIA PaCa-2 cells it was 15.6 nM.
The corresponding values for `COCc1nc2c3c(c(OC)cc2n1C)-c1cccn2c(C(=O)c4cc(F)c(NC(=O)/C=C/CNC5(C)COC5)c(F)c4)cc(c12)CCN3C` (single isomer, unassigned) [Example 170, (E)-N-(2,6-difluoro-4-(7-methoxy-10-(methoxy-methyl)-9,12-dimethyl-9,12,13,14-tetrahydro-imidazo[4″,5″:5′,6′]benzo-[1′,2′:2,3]azocino[4,5,6-hi]indolizine-2-carbonyl)-phenyl)-4-((3-methyl-oxetan-3-yl)amino)but-2-enamide] are 14.1 nM and 47.7 nM.
The corresponding values for `COCc1nc2c3c(c(OC)cc2n1C)-c1cccn2c(C(=O)c4cc(F)c(NC(=O)/C=C/CN[C@H]5CCOC5)c(F)c4)cc(c12)CCN3C` (single isomer, unassigned) [Example 171] are 6.34 nM and 13.5 nM.
As to `Cc1c2cc(C(F)(F)F)c3c(c2nn1C)N(C)CCc1nc(C(=O)c2cc(F)c(NC(=O)/C=C/CN[C@H]4CCOC4)c(F)c2)n2cccc-3c12` (single isomer, unassigned) [Example 176], the IC50 is 67.4 nM in experiment [1] and 25.1 nM in the experiment with MIA PaCa-2 cells.
The like results for `COCc1nc2c3c(c(OC)cc2n1C)-c1cccn2c(C(=O)c4cc(F)c(NC(=O)/C=C/CN[C@H]5CCOC5)c(F)c4)nc(c12)CCN3C` (single isomer, unassigned) [Example 177] were, in that order, 39.5 nM and 38.5 nM.
The corresponding values for `COCCn1cnc2c3c(c(C(F)(F)F)cc21)-c1cccn2c(C(=O)c4cc(F)c(NC(=O)/C=C/CNC5(C)COC5)c(F)c4)cc(c12)CCN3C` (single isomer, unassigned) [Example 178, (E)-N-(2,6-difluoro-4-(9-(2-methoxyethyl)-12-methyl-7-(trifluorometh-yl)-9,12,13,14-tetrahydro-imidazo[4″,5″:5′,6′]benzo-[1′,2′:2,3]azocino[4,5,6-hi]indolizine-2-carbonyl)-phenyl)-4-((3-methyl-oxetan-3-yl)amino)but-2-enamide] are 32.4 nM and 41.3 nM.
The like results for `CN1CCc2cc(C(=O)c3cc(F)c(NC(=O)/C=C/CNC4(C)COC4)c(F)c3)n3cccc(c23)-c2c(C(F)(F)F)cc3[nH]cnc3c21` (single isomer, unassigned) [Example 179, (E)-N-(2,6-difluoro-4-(12-methyl-7-(trifluorometh-yl)-9,12,13,14-tetrahydro-imidazo[4″,5″:5′,6′]benzo-[1′,2′:2,3]azocino[4,5,6-hi]indolizine-2-carbonyl)-phenyl)-4-((3-methyloxe-tan-3-yl)amino)but-2-enamide] were, in that order, 41.6 nM and 139 nM.
As for `CN1CCc2cc(C(=O)c3cc(F)c(NC(=O)/C=C/CN4CC[C@H]4C(C)(C)O)c(F)c3)n3cccc(c23)-c2c(C(F)(F)F)cc3c(ncn3C)c21` (single isomer, unassigned) [Example 180], the values for the IC50 (in experiment [1]; with MIA PaCa-2 cells) were 49.3 nM and 12.7 nM, respectively.
The like results for `COCc1nc2c3c(c(OC)cc2n1C)-c1cccn2c(C(=O)c4cc(F)c(NC(=O)/C=C/CNC5(C)CC5)c(F)c4)nc(c12)CCN3C` (single isomer, unassigned) [Example 181, (E)-N-(2,6-difluoro-4-(6-methoxy-9-(methoxy-methyl)-8,11-dimethyl-8,11,12,13-tetrahydro-1,2a,8,10,11-pentaaza-cycloocta[1,2,3-cd:5,4-e′]-diindene-2-carbonyl)phen-yl)-4-((1-methylcyclo-propyl)amino)but-2-en-amide] were, in that order, 48.1 nM and 21 nM.
The like results for `CN1CCc2nc(C(=O)c3cc(F)c(NC(=O)/C=C/CNC4(C)CC4)c(F)c3)n3cccc(c23)-c2c(C(F)(F)F)cc3c(ncn3C)c21` (single isomer, unassigned) [Example 182] were, in that order, 35.2 nM and 27.8 nM.
With `CC1(NC/C=C/C(=O)Nc2c(F)cc(C(=O)c3cc4c5c(cccn35)-c3c(cc(N5CCCC5=O)cc3C(F)(F)F)OCC4)cc2F)COC1` (single isomer, unassigned) [Example 183, (E)-N-(2,6-difluoro-4-(7-(2-oxopyrrolidin-1-yl)-9-(trifluoromethyl)-3,4-dihydrobenzo[2,3]oxocino-[4,5,6-hi]indolizine-1-carbonyl)phenyl)-4-((3-methyloxetan-3-yl)-amino)-but-2-enamide], the IC50 in experiment [1] came to 35.2 nM; with MIA PaCa-2 cells it was 112 nM.
The like results for `COCc1nc2c3c(c(C(F)(F)F)cc2n1C)-c1cccn2c(C(=O)c4cc(F)c(NC(=O)/C=C/CN[C@H]5CCOC5)c(F)c4)nc(c12)CCN3C` (single isomer, unassigned) [Example 184] were, in that order, 48.3 nM and 28.1 nM.
The like results for `COCCn1cnc2c3c(c(C(F)(F)F)cc21)-c1cccn2c(C(=O)c4cc(F)c(NC(=O)/C=C/CN[C@H]5CCOC5)c(F)c4)cc(c12)CCN3C` (single isomer, unassigned) [Example 186] were, in that order, 16.7 nM and 10.3 nM.

By IC50 is commonly meant the point on the concentration scale where inhibition reaches its midpoint.

The values are drawn from patent US20240262842A1, “SMALL MOLECULE INHIBITORS OF KRAS G12C MUTANT” (Merck Sharp & Dohme LLC, priority 2021, published 2024).
